In ChEMBL document CHEMBL1201862, “PubChem BioAssay data set” (2004):
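Following 48 hours of exposure in 96-well plates, responses at five concentrations were used to interpolate endpoints linearly. GI50 is the concentration that inhibits growth by half.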 The source made the active and inactive calls. No stated cut-off is given here; in the data, active = GI50 up to about 1.1 µM and inactive = higher.

Assays:
Assay in all cases: NCI-60 cell line screen, 48 h
786-0 = system: 786-0
A498 = system: A498
A549 = system: A549
ACHN = system: ACHN
BT-549 = system: BT-549
CAKI-1 = system: CAKI-1
CCRF-CEM = system: CCRF-CEM
COLO 205 = system: COLO 205
DU-145 = system: DU-145
EKVX = system: EKVX
HCC 2998 = system: HCC 2998
HCT-116 = system: HCT-116
HCT-15 = system: HCT-15
HL-60 = system: HL-60
HOP-62 = system: HOP-62
HOP-92 = system: HOP-92
HT-29 = system: HT-29
Hs-578T = system: Hs-578T
IGROV-1 = system: IGROV-1
K562 = system: K562
KM12 = system: KM12
LOX IMVI = system: LOX IMVI
M14 = system: M14
MCF7 = system: MCF7
MDA-MB-231 = system: MDA-MB-231
MDA-MB-435 = system: MDA-MB-435
MDA-N = system: MDA-N
MOLT-4 = system: MOLT-4
Malme-3M = system: Malme-3M
NCI-H226 = system: NCI-H226
NCI-H23 = system: NCI-H23
NCI-H460 = system: NCI-H460
NCI-H522 = system: NCI-H522
NCI/ADR-RES = system: NCI/ADR-RES
OVCAR-3 = system: OVCAR-3
OVCAR-4 = system: OVCAR-4
OVCAR-5 = system: OVCAR-5
OVCAR-8 = system: OVCAR-8
PC-3 = system: PC-3
RPMI-8226 = system: RPMI-8226
RXF 393 = system: RXF 393
SF-268 = system: SF-268
SF-295 = system: SF-295
SF-539 = system: SF-539
SK-MEL-28 = system: SK-MEL-28
SK-MEL-2 = system: SK-MEL-2
SK-MEL-5 = system: SK-MEL-5
SK-OV-3 = system: SK-OV-3
SN12C = system: SN12C
SNB-19 = system: SNB-19
SNB-75 = system: SNB-75
SR = system: SR
SW-620 = system: SW-620
T47D = system: T47D
TK-10 = system: TK-10
U-251 = system: U-251
UACC-257 = system: UACC-257
UACC-62 = system: UACC-62
UO-31 = system: UO-31

## Cc1ccc(C(=O)NC2C(=O)NC(C(C)C)C(=O)N3CCCC3C(=O)N(C)CC(=O)N(C)C(C(C)C)C(=O)OC2C)c2c1Oc1c(c(C(=O)NC3C(=O)NC(C(C)C)C(=O)N4CCCC4C(=O)N(C)CC(=O)N(C)C(C(C)C)C(=O)OC3C)c3nc(-c4ccccc4)c(=O)oc3c1C)N2 (stereo not drawn)
786-0
  GI50: < 0.001 µM (active)
A498
  GI50: < 0.001 µM (active)
A549
  GI50: < 0.001 µM (active)
ACHN
  GI50: 0.00515 µM (active)
BT-549
  GI50: < 0.001 µM (active)
CAKI-1
  GI50: 0.00948 µM (active)
CCRF-CEM
  GI50: 0.00255 µM (active)
COLO 205
  GI50: 0.0039 µM (active)
DU-145
  GI50: 0.00422 µM (active)
EKVX
  GI50: 0.00705 µM (active)
HCC 2998
  GI50: < 0.001 µM (active)
HCT-116
  GI50: < 0.001 µM (active)
HCT-15
  GI50: 0.0377 µM
HL-60
  GI50: 0.00995 µM (active)
HOP-62
  GI50: < 0.001 µM (active)
HOP-92
  GI50: 0.016 µM (active)
HT-29
  GI50: < 0.001 µM (active)
Hs-578T
  GI50: 0.00134 µM (active)
IGROV-1
  GI50: < 0.001 µM (active)
K562
  GI50: 0.00312 µM (active)
KM12
  GI50: < 0.001 µM (active)
LOX IMVI
  GI50: < 0.001 µM (active)
M14
  GI50: 0.0231 µM (active)
MCF7
  GI50: < 0.001 µM (active)
MDA-MB-231
  GI50: 0.00762 µM (active)
MDA-MB-435
  GI50: 0.00154 µM (active)
MDA-N
  GI50: 0.00348 µM (active)
MOLT-4
  GI50: 0.00222 µM (active)
Malme-3M
  GI50: 0.00361 µM (active)
NCI-H226
  GI50: 0.00163 µM (active)
NCI-H23
  GI50: 0.00167 µM (active)
NCI-H460
  GI50: < 0.001 µM (active)
NCI-H522
  GI50: 0.0024 µM (active)
NCI/ADR-RES
  GI50: 0.189 µM (active)
OVCAR-3
  GI50: 0.01 µM (active)
OVCAR-4
  GI50: 0.151 µM (active)
OVCAR-5
  GI50: 0.00216 µM (active)
OVCAR-8
  GI50: < 0.001 µM (active)
PC-3
  GI50: 0.00219 µM (active)
RPMI-8226
  GI50: 0.00147 µM (active)
RXF 393
  GI50: 0.00161 µM (active)
SF-268
  GI50: < 0.001 µM (active)
SF-295
  GI50: < 0.001 µM (active)
SF-539
  GI50: < 0.001 µM (active)
SK-MEL-28
  GI50: < 0.001 µM (active)
SK-MEL-2
  GI50: 0.00112 µM (active)
SK-MEL-5
  GI50: 0.00177 µM (active)
SK-OV-3
  GI50: 0.00159 µM (active)
SN12C
  GI50: < 0.001 µM (active)
SNB-19
  GI50: < 0.001 µM (active)
SNB-75
  GI50: 0.00101 µM (active)
SR
  GI50: 0.01 µM (active)
SW-620
  GI50: 0.004 µM (active)
T47D
  GI50: 0.00453 µM (active)
TK-10
  GI50: 0.0578 µM (active)
U-251
  GI50: < 0.001 µM (active)
UACC-257
  GI50: 0.00871 µM (active)
UACC-62
  GI50: < 0.001 µM (active)
UO-31
  GI50: 0.0103 µM (active)

## Cc1[nH]c2ccccc2c1-c1cc(-c2cc(-c3c(C)[nH]c4ccccc34)on2)no1
786-0
  GI50: 92 µM (inactive)
A498
  GI50: > 100 µM (inactive)
A549
  GI50: > 100 µM (inactive)
ACHN
  GI50: > 100 µM (inactive)
BT-549
  GI50: > 100 µM (inactive)
CAKI-1
  GI50: 76.2 µM (inactive)
CCRF-CEM
  GI50: 34.2 µM (inactive)
COLO 205
  GI50: 84.1 µM (inactive)
DU-145
  GI50: > 100 µM (inactive)
EKVX
  GI50: 54.7 µM (inactive)
HCC 2998
  GI50: 61 µM (inactive)
HCT-116
  GI50: 44.3 µM (inactive)
HCT-15
  GI50: 57.1 µM
HL-60
  GI50: 34.5 µM (inactive)
HOP-62
  GI50: 85.9 µM (inactive)
HOP-92
  GI50: 83.8 µM (inactive)
HT-29
  GI50: 42.6 µM (inactive)
Hs-578T
  GI50: 37.2 µM (inactive)
IGROV-1
  GI50: 56.8 µM (inactive)
K562
  GI50: 56.6 µM (inactive)
KM12
  GI50: 42.6 µM (inactive)
LOX IMVI
  GI50: 55 µM (inactive)
M14
  GI50: 37.7 µM (inactive)
MCF7
  GI50: 55 µM (inactive)
MDA-MB-231
  GI50: > 100 µM (inactive)
MDA-MB-435
  GI50: 25.8 µM (inactive)
MDA-N
  GI50: 21 µM (inactive)
MOLT-4
  GI50: > 100 µM (inactive)
Malme-3M
  GI50: 63.7 µM (inactive)
NCI-H226
  GI50: 98.4 µM (inactive)
NCI-H23
  GI50: > 100 µM (inactive)
NCI-H460
  GI50: 42 µM (inactive)
NCI-H522
  GI50: 34.3 µM (inactive)
NCI/ADR-RES
  GI50: > 100 µM (inactive)
OVCAR-3
  GI50: 40.6 µM (inactive)
OVCAR-4
  GI50: > 100 µM (inactive)
OVCAR-5
  GI50: > 100 µM (inactive)
OVCAR-8
  GI50: > 100 µM (inactive)
PC-3
  GI50: 63 µM (inactive)
RPMI-8226
  GI50: 85.1 µM (inactive)
RXF 393
  GI50: 37.7 µM (inactive)
SF-268
  GI50: 52.7 µM (inactive)
SF-295
  GI50: 40.2 µM (inactive)
SF-539
  GI50: 49 µM (inactive)
SK-MEL-28
  GI50: > 100 µM (inactive)
SK-MEL-2
  GI50: > 100 µM (inactive)
SK-MEL-5
  GI50: 38.5 µM (inactive)
SK-OV-3
  GI50: 77.6 µM (inactive)
SN12C
  GI50: > 100 µM (inactive)
SNB-19
  GI50: > 100 µM (inactive)
SNB-75
  GI50: 18.2 µM (inactive)
SR
  GI50: 38.8 µM (inactive)
SW-620
  GI50: 53.2 µM (inactive)
T47D
  GI50: 85.5 µM (inactive)
TK-10
  GI50: > 100 µM (inactive)
U-251
  GI50: 77.8 µM (inactive)
UACC-257
  GI50: 43.1 µM (inactive)
UACC-62
  GI50: 51.4 µM (inactive)
UO-31
  GI50: 46.6 µM (inactive)
